Inhibition and IC50 data for 14 compounds are collected here from patent publication US10519134B2, “Pyrazole compounds and methods of making and using same” (Lundbeck La Jolla Research Center, Inc., priority 2015, dated 2019).

Usually IC50 stands for the concentration that gives 50% inhibition. Low readings indicate inhibition by little substance, high ones a need for much substance.

In assay [1] the target is T1, MAGL (Mus musculus, UniProt O35678).
T1 construct: Proteomes (mouse brain membrane fraction or cell lysates); from tissue; host or cells: mouse brain membrane fraction (or cell lysates)
T1 sequence (O35678 1-303): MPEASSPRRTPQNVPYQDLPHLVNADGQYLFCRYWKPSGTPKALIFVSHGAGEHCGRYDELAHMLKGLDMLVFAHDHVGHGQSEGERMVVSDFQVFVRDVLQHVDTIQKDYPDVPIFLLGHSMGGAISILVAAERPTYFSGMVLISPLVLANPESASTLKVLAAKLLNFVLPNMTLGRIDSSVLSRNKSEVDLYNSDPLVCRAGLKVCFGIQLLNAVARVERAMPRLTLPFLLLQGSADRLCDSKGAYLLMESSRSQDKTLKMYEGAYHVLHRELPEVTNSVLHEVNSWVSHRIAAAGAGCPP
As to the kind of experiment: Mouse brain proteomes from inhibitor treated mice (oral gavage, sacrificed 4 h after administration). Type of assay: in vivo. To be noted: read-out: MAGL % inh. 5 mg/kg. The gist of the method:
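Brains were collected 4 h after oral gavage dosing of wild-type C57Bl/6J mice, vehicle polyethylene glycol. Proteomes from these brains were then analyzed for MAGL and other serine hydrolase activity.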

The target of assay [2] is T2, FAAH (Mus musculus, UniProt O08914).
T2 construct: Proteomes (mouse brain membrane fraction or cell lysates); from tissue; host or cells: mouse brain membrane fraction (or cell lysates)
T2 sequence (O08914 1-579): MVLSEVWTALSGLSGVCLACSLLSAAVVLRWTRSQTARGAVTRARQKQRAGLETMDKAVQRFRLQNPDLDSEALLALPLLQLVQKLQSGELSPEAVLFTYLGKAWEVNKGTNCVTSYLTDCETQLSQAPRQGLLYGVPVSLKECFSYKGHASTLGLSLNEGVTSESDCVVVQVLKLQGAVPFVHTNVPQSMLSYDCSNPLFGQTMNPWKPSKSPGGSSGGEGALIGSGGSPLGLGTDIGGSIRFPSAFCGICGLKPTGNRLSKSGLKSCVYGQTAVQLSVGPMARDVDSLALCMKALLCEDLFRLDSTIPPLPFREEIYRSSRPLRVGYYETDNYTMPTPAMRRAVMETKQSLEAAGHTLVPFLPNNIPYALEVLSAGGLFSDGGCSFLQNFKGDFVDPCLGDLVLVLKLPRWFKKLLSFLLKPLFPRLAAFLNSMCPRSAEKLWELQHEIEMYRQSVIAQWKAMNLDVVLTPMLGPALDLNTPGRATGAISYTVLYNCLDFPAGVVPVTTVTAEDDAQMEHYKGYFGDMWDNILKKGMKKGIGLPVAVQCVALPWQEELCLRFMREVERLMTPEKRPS
As to the kind of experiment: In vitro competitive activity-based protein profiling (mouse), FAAH gel band. Type of assay: biochemical. To be noted: for inhibition at 1 µM: read-out: FAAH % inh. 1 μM; for IC50: mouse. The gist of the method:
(§1)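 Mouse brain membrane proteome or cell lysate (1.0 mg/mL protein) preincubated 30 min at 37 °C with varying inhibitor concentrations, then labelled 30 min at 37 °C with FP-Rh or HT-01 probe (50 μM stock). After SDS-PAGE, activity taken from fluorescent intensity of the MAGL and FAAH gel bands.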

Assay [3] deals with T3, MAGL (Homo sapiens, UniProt Q99685).
T3 construct: Proteomes (human prefrontal cortex or cell membrane fractions); from tissue; host or cells: human prefrontal cortex (or cell membrane fractions)
T3 sequence (Q99685 1-303): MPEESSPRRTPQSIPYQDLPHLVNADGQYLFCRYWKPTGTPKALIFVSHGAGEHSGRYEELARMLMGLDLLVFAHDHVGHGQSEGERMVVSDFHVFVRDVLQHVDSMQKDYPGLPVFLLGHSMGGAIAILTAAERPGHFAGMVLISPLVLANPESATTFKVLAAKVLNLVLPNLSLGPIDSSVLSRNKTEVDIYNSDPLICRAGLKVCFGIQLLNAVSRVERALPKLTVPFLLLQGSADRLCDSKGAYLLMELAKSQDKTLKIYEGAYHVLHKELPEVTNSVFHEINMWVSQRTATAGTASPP
Kind of assay: In vitro competitive activity-based protein profiling (human), MAGL gel band. Type of assay: biochemical. The gist of the method:
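Human prefrontal cortex or cell membrane proteomes (1.0-2.0 mg/mL protein) preincubated with inhibitors 30 min at 37° C, then labelled with FP-Rh or JW912 probe 30 min at room temperature. Residual MAGL activity read as fluorescent gel-band intensity after SDS-PAGE.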

Assay [4] deals with T1, MAGL. Kind of assay: In vitro competitive activity-based protein profiling (mouse), MAGL gel band. Type of assay: biochemical. The following applies: for inhibition at 1 µM: read-out: MAGL % inh. 1 μM; for IC50: mouse. The gist of the method: as §1

Consider `CC(=O)Nc1ccn(C(=O)N2CCC3(CCCN3Cc3ccc(Cl)c(C4CC4)c3)CC2)n1` [Example 111, N-(1-(1-(4-chloro-3-cyclopropylbenzyl)-1,8-diazaspiro[4.5]decane-8-carbonyl)-1H-pyrazol-3-yl)acetamide], for which the inhibition at 5 mg/kg in assay [1] lay in the range of 0 to 25%. Besides, the inhibition at 1 µM in assay [2] is 0 to 25%; in assay [4] it was at least 75%. Further, the IC50 in assay [3] is at most 100 nM.

As to `CS(=O)(=O)Nc1ccn(C(=O)N2CCN(Cc3ccc(C(F)(F)F)cc3-c3nncs3)CC2)n1` [Example 114, N-(1-(4-(2-(1,3,4-thiadiazol-2-yl)-4-(trifluoromethyl)benzyl)piperazine-1-carbonyl)-1H-pyrazol-3-yl)methanesulfonamide], in assay [1], the inhibition at 5 mg/kg lay within 0 to 25%. The inhibition at 1 µM in assay [2] is 0 to 25%; in assay [4], at least 75%. This compound returned an IC50 in assay [3] of at most 100 nM.

For the compound `CS(=O)(=O)Nc1ccn(C(=O)N2CCN(Cc3cc(Cl)ccc3N3CCOCC3)CC2)n1` [Example 123, N-(1-(4-(5-chloro-2-morpholinobenzyl)piperazine-1-carbonyl)-1H-pyrazol-3-yl) methanesulfonamide], the inhibition at 5 mg/kg in assay [1] is 25 to 50%. The IC50 is 1000 to 10000 nM in assay [2], at most 100 nM in assay [3] and 100 to 1000 nM in assay [4]. For the same compound, the inhibition at 1 µM was 0 to 25% in assay [2] and at least 75% in assay [4].

`CS(=O)(=O)Nc1ccn(C(=O)N2CCC3(CCCN3Cc3ccc(C(F)(F)F)cc3N3CCCC3)CC2)n1` [Example 125, N-(1-(1-(2-(pyrrolidin-1-yl)-4-(trifluoromethyl)benzyl)-1,8-diazaspiro[4.5]decane-8-carbonyl)-1H-pyrazol-3-yl) methanesulfonamide]: the inhibition at 5 mg/kg in assay [1] lay in the range of 0 to 25%. The half-inhibitory concentration (IC50) was 1000 to 10000 nM in assay [2], at most 100 nM in assay [3] and at most 100 nM in assay [4]. Further, the inhibition at 1 µM in assay [2] was 0 to 25%; in assay [4], at least 75%.

On to `CS(=O)(=O)Nc1ccn(C(=O)N2CCC3(CCCN3Cc3ccc(C(F)(F)F)cc3N3C[C@H]4CC[C@@H](C3)O4)CC2)n1` [Example 136, N-(1-(1-(2-((1R,5S)-8-oxa-3-azabicyclo[3.2.1]octan-3-yl)-4-(trifluoromethyl)benzyl)-1,8-diazaspiro[4.5]decane-8-carbonyl)-1H-pyrazol-3-yl) methanesulfonamide], for which the inhibition at 5 mg/kg in assay [1] was 0 to 25%. For the same compound, the half-maximal inhibitory concentration (IC50) in assay [2] is 1000 to 10000 nM; in assay [3], at most 100 nM; in assay [4] it was 100 to 1000 nM. Moreover, the inhibition at 1 µM is 0 to 25% in assay [2] and at least 75% in assay [4].

Consider `CS(=O)(=O)Nc1ccn(C(=O)N2CCN(Cc3ccc(N4CCCC4)c(C(F)(F)F)c3)CC2)n1` [Example 152, N-(1-(4-(4-(pyrrolidin-1-yl)-3-(trifluoromethyl)benzyl)piperazine-1-carbonyl)-1H-pyrazol-3-yl) methanesulfonamide], for which the inhibition at 5 mg/kg in assay [1] was at least 75%. Further, the results for the IC50 in assay [2], in assay [3] and in assay [4] were 1000 to 10000 nM, at most 100 nM and at most 100 nM, respectively. In addition, the inhibition at 1 µM was 0 to 25% in assay [2] and at least 75% in assay [4].

In the case of `CS(=O)(=O)Nc1ccn(C(=O)N2CCN(Cc3cc(N4CCCC4)cc(C(F)(F)F)c3)CC2)n1` [Example 156, N-(1-(4-(3-(pyrrolidin-1-yl)-5-(trifluoromethyl)benzyl)piperazine-1-carbonyl)-1H-pyrazol-3-yl) methanesulfonamide], the inhibition at 5 mg/kg in assay [1] was at least 75%. The 50% inhibitory concentration (IC50) in assay [2] is 1000 to 10000 nM; in assay [3], at most 100 nM; in assay [4], at most 100 nM. The values for the inhibition at 1 µM in assay [2] and in assay [4] were 0 to 25% and at least 75%, respectively.

Turning to `CS(=O)(=O)Nc1ccn(C(=O)N2CCN(Cc3ccc(Cl)c(N4CCCC4)c3)CC2)n1` [Example 165, N-(1-(4-(4-chloro-3-(pyrrolidin-1-yl)benzyl)piperazine-1-carbonyl)-1H-pyrazol-3-yl) methanesulfonamide], the inhibition at 5 mg/kg in assay [1] is at least 75%. Further, the inhibition at 1 µM in assay [2] is 0 to 25%; in assay [4], at least 75%. The IC50 in assay [3] is at most 100 nM.

For `CS(=O)(=O)Nc1ccn(C(=O)N2CCN(Cc3ccc(C(F)(F)F)cc3N3CCC3)CC2)n1` [Example 175, N-(1-(4-(2-(azetidin-1-yl)-4-(trifluoromethyl)benzyl)piperazine-1-carbonyl)-1H-pyrazol-3-yl) methanesulfonamide], the inhibition at 5 mg/kg in assay [1] was at least 75%. Besides, the inhibition at 1 µM in assay [2] was 0 to 25%; in assay [4], at least 75%. Further, in assay [3], the concentration for half-maximal inhibition (IC50) was at most 100 nM.

On to `CS(=O)(=O)Nc1ccn(C(=O)N2CCN(Cc3ccc(C(F)(F)F)cc3N3CCC(C(=O)O)CC3)CC2)n1` [Example 186, 1-(2-((4-(3-(methylsulfonamido)-1H-pyrazole-1-carbonyl)piperazin-1-yl)methyl)-5-(trifluoromethyl)phenyl)piperidine-4-carboxylic acid], for which the inhibition at 5 mg/kg in assay [1] lay in the range of 0 to 25%. Moreover, the IC50 in assay [2] is 1000 to 10000 nM; in assay [3], 100 to 1000 nM; in assay [4] it was 100 to 1000 nM. In addition, the inhibition at 1 µM in assay [2] was 0 to 25%; in assay [4] it was at least 75%.

Take `CS(=O)(=O)Nc1ccn(C(=O)N2CCN(Cc3ccc(C(F)(F)F)cc3N3CCCC3)CC2)n1` [Example 188, N-(1-(4-(2-(pyrrolidin-1-yl)-4-(trifluoromethyl)benzyl)piperazine-1-carbonyl)-1H-pyrazol-3-yl) methanesulfonamide]: the inhibition at 5 mg/kg in assay [1] was at least 75%. For the same compound, the IC50 in assay [2] was 1000 to 10000 nM; in assay [3] it was at most 100 nM; in assay [4] it was at most 100 nM. Also, the inhibition at 1 µM in assay [2] is 0 to 25%; in assay [4], at least 75%.

Take `CS(=O)(=O)Nc1ccn(C(=O)N2CCC3(CCCN3Cc3ccc(C(F)(F)F)cc3N3CC4COCC4C3)CC2)n1` (stereo not shown) [Example 199, N-(1-(1-(2-(tetrahydro-1H-furo[3,4-c]pyrrol-5(3H)-yl)-4-(trifluoromethyl)benzyl)-1,8-diazaspiro[4.5]decane-8-carbonyl)-1H-pyrazol-3-yl) methanesulfonamide]: the inhibition at 5 mg/kg in assay [1] was 25 to 50%. In addition, the inhibition at 1 µM in assay [2] was 0 to 25%; in assay [4] it was at least 75%. Besides, in assay [3], the IC50 was at most 100 nM.

On to `CC1CCCN1c1cc(CN2CCN(C(=O)n3ccc(NS(C)(=O)=O)n3)CC2)ccc1Cl` (stereo not shown) [Example 200, N-(1-(4-(4-chloro-3-(2-methylpyrrolidin-1-yl)benzyl)piperazine-1-carbonyl)-1H-pyrazol-3-yl) methanesulfonamide], for which the inhibition at 5 mg/kg in assay [1] is at least 75%. In addition, the inhibition at 1 µM was 0 to 25% in assay [2] and at least 75% in assay [4]. In assay [3], the IC50 is at most 100 nM.

With `CS(=O)(=O)Nc1ccn(C(=O)N2CCN(Cc3ccc(Cl)c(N4CCC(F)CC4)c3)CC2)n1` [Example 201, N-(1-(4-(4-chloro-3-(4-fluoropiperidin-1-yl)benzyl)piperazine-1-carbonyl)-1H-pyrazol-3-yl) methanesulfonamide], the inhibition at 5 mg/kg in assay [1] was at least 75%. Also, the figures for the inhibition at 1 µM in assay [2] and in assay [4] were 0 to 25% and at least 75%, respectively. This compound also returned an IC50 in assay [3] of at most 100 nM.
